Reference: ChEMBL document CHEMBL1201862, “PubChem BioAssay data set” (2004)
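Values below derive from 48-hour exposures of cells grown in 96-well plates, with endpoints linearly interpolated between the two concentrations bracketing the appropriate inhibition level. Abbreviation: GI50, concentration required for 50% inhibition of growth.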 Calls of active or inactive are those of the source. Cut-off read from the data, not from the text of the source: active = GI50 up to about 1.1 µM and inactive = higher.

Legend:
Experiment in all cases: NCI-60 cell line screen, 48 h
[1] = test system: SK-MEL-5
[2] = test system: MOLT-4
[3] = test system: SK-OV-3
[4] = test system: SNB-75
[5] = test system: SF-295
[6] = test system: OVCAR-3
[7] = test system: NCI-H226
[8] = test system: UACC-257
[9] = test system: A498
[10] = test system: 786-0
[11] = test system: SK-MEL-2
[12] = test system: DMS-273
[13] = test system: HOP-62
[14] = test system: OVCAR-4
[15] = test system: NCI-H23
[16] = test system: RPMI-8226

Measured: GI50

O=C1OC(c2cccc(C(F)(F)F)c2)c2ccc3ccccc3c21 (configuration not stated)
inactive: [1] 4.74 µM | [2] 6.31 µM | [3] > 10 µM | [4] 18.7 µM | [5] 12.2 µM | [6] > 10 µM | [7] > 10 µM | [8] 6.32 µM | [9] > 10 µM | [10] > 10 µM | [11] > 10 µM | [12] > 10 µM | [13] > 10 µM | [14] > 10 µM | [15] 4.95 µM

NC(=S)N/C=C1\C(=O)Oc2ccccc2C1=O
inactive: [1] 42.3 µM | [2] > 100 µM | [3] 51.2 µM | [4] 14.1 µM | [5] > 100 µM | [6] 37.3 µM | [7] 21.9 µM | [8] > 100 µM | [9] 51.4 µM | [10] 53.5 µM | [11] 22.6 µM | [12] > 100 µM | [14] > 100 µM | [16] > 100 µM | [15] > 100 µM

O=C(Nc1cc(Cl)c(Cl)cc1Cl)C(=O)C1C=CCS1(=O)=O (configuration not stated)
inactive: [1] > 100 µM | [2] > 100 µM | [3] > 100 µM | [4] 72.6 µM | [5] > 100 µM | [6] > 100 µM | [7] 87.3 µM | [8] > 100 µM | [9] > 100 µM | [10] > 100 µM | [11] > 100 µM | [12] > 100 µM | [13] > 100 µM | [14] > 100 µM | [16] > 100 µM | [15] > 100 µM

CCC(C)(O)c1cn(-c2cccc(S(=O)(=O)O)c2)nn1 (configuration not stated)
inactive: [1] > 100 µM | [2] > 100 µM | [3] > 100 µM | [4] > 100 µM | [5] > 100 µM | [6] > 100 µM | [7] > 100 µM | [8] > 100 µM | [9] > 100 µM | [10] > 100 µM | [11] > 100 µM | [12] > 100 µM | [13] > 100 µM | [14] > 100 µM | [16] > 100 µM | [15] > 100 µM

O=S1(=O)OCCOS(=O)(=O)C1(Cl)Cl
inactive: [1] 74.8 µM | [2] 42.2 µM | [3] > 100 µM | [4] > 100 µM | [5] 46 µM | [6] > 100 µM | [7] 41.1 µM | [8] > 100 µM | [9] > 100 µM | [10] 61.9 µM | [11] > 100 µM | [12] 53.1 µM | [13] 64.9 µM | [14] > 100 µM | [16] > 100 µM | [15] > 100 µM

COc1ccc(-c2nc(N)nc(-c3cc(C)ccc3O)c2Cl)cc1
inactive: [2] > 100 µM | [3] 29.9 µM | [4] 25 µM | [5] 60.1 µM | [6] 30.6 µM | [7] > 100 µM | [8] > 100 µM | [9] 43.7 µM | [10] 45.4 µM | [12] 43.7 µM | [13] 41.7 µM | [14] 11.3 µM | [16] > 100 µM | [15] 50.6 µM

CCO/C=C1\N=C(c2ccccc2Br)OC1=O
inactive: [2] > 100 µM | [3] > 100 µM | [4] > 100 µM | [5] > 100 µM | [6] > 100 µM | [7] > 100 µM | [8] > 100 µM | [9] > 100 µM | [10] > 100 µM | [11] > 100 µM | [12] > 100 µM | [13] > 100 µM | [14] > 100 µM | [16] > 100 µM | [15] > 100 µM

CCCCCCC(/C=N/O)C(C)(O)CCC (configuration not stated)
inactive: [1] > 100 µM | [2] 61.7 µM | [4] > 100 µM | [5] > 100 µM | [6] > 100 µM | [7] > 100 µM | [8] > 100 µM | [9] > 100 µM | [10] > 100 µM | [11] > 100 µM | [12] > 100 µM | [13] > 100 µM | [14] > 100 µM | [16] 54 µM | [15] > 100 µM

CCOc1ccc(NC(=O)CC2SC(Nc3ccc(C)cc3C)=NC2=O)cc1 (configuration not stated)
inactive: [1] > 100 µM | [2] 21.4 µM | [4] 49.2 µM | [5] > 100 µM | [6] 48.8 µM | [7] 84.3 µM | [8] 85.7 µM | [9] > 100 µM | [10] > 100 µM | [11] > 100 µM | [12] > 100 µM | [14] 90.8 µM | [16] 29.9 µM | [15] > 100 µM

COC(=O)C(C(=O)C(=O)Nc1nnc(S)[nH]1)c1csc(N)n1 (configuration not stated)
inactive: [1] > 100 µM | [2] > 100 µM | [3] > 100 µM | [4] > 100 µM | [5] > 100 µM | [6] > 100 µM | [7] > 100 µM | [8] > 100 µM | [9] > 100 µM | [10] > 100 µM | [11] > 100 µM | [12] > 100 µM | [13] > 100 µM | [14] > 100 µM | [16] > 100 µM | [15] > 100 µM

COc1cc(C(C)c2cc3c(cc2OCCCCCOc2cc4c(cc2C(C)c2cc(OC)c(OC)c(OC)c2)OCO4)OCO3)cc(OC)c1OC (configuration not stated)
inactive: [1] > 100 µM | [2] > 100 µM | [4] 59.8 µM | [5] > 100 µM | [6] > 100 µM | [7] > 100 µM | [8] 33.7 µM | [9] > 100 µM | [10] > 100 µM | [11] > 100 µM | [12] > 100 µM | [13] > 100 µM | [14] > 100 µM | [16] > 100 µM | [15] > 100 µM

CCOC(=O)CC1(C(=O)OCC)c2[nH]c3ccccc3c2CCN1Cc1ccccc1 (configuration not stated)
inactive: [1] 20 µM | [2] 13.5 µM | [3] 28.5 µM | [4] 20.8 µM | [5] 16.8 µM | [6] 14.1 µM | [7] 19.1 µM | [8] 17.7 µM | [9] 19.3 µM | [10] 16.9 µM | [11] 17.9 µM | [12] 17.3 µM | [13] 18.1 µM | [14] 19.2 µM | [15] 15.9 µM

CN(C)[C@@H]1C(O)=C(C(=O)NCNCCCC(=O)O)C(=O)[C@@]2(O)C(O)=C3C(=O)c4c(O)cccc4[C@@](C)(O)[C@H]3C[C@@H]12
inactive: [1] > 100 µM | [2] > 100 µM | [3] > 100 µM | [5] > 100 µM | [6] > 100 µM | [7] > 100 µM | [8] > 100 µM | [9] > 100 µM | [10] > 100 µM | [11] > 100 µM | [12] > 100 µM | [13] > 100 µM | [14] > 100 µM | [16] > 100 µM | [15] > 100 µM
